How the values were obtained:
[1] = biological target: T1, mouse DGAT1 (Mus musculus, UniProt Q9Z2A7); experiment: DGAT1 inhibitory effect test (microsome fraction, [14C]-oleoyl-CoA, triglyceride radioactivity by TLC); format: biochemical; conditions: 0.5 h; concentration of the test compound 0.1 μg/ml; mouse DGAT1 microsomes, 23° C., 30 minutes; read-out: Inhibitory ratio
T1 construct: made in house; host or cells: insect cells (High Five, Sf9, Sf21, etc.), baculovirus expression system (Invitrogen)
T1 sequence (Q9Z2A7 1-498): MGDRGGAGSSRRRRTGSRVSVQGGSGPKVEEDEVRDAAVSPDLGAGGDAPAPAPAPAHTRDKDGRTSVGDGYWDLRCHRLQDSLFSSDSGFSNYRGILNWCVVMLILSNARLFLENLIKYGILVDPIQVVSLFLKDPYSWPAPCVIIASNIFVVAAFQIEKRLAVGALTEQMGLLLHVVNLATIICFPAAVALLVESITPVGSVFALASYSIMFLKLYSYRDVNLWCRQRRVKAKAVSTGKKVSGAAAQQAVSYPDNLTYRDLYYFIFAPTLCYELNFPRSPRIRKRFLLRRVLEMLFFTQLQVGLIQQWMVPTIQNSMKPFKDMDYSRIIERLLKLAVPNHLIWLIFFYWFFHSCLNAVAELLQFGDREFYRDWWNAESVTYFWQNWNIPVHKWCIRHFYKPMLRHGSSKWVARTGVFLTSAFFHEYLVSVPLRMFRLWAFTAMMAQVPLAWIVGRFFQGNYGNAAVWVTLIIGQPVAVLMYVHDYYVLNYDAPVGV
Method in brief: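 Baculovirus-expressed mouse DGAT1 insect-cell microsomes (10 μg) were incubated 30 min at 23 °C, pH 8.0, with 0.5 mM 1,2-dioleoyl-sn-glycerol, 30 μM [14C]-oleoyl-CoA and 0.5% Triton X-100. [14C]-triglyceride was quantified after heptane extraction and TLC. Percent inhibition was taken against vehicle control, with 0-min background subtracted.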

Row | SMILES | inhibition at 0.1 µg/mL [1] | melting point
1 | COc1ccc(C)cc1NC(=O)Nc1ccc(N2CCN(C(=O)Nc3ccc(N)cc3Cl)CC2)cc1 [Example 168, 4-{4-[3-(2-methoxy-5-methyl-phenyl)-ureido]-phenyl}-piperazine-1-carboxylic acid (4-amino-2-chloro-phenyl)-amide] | ≥ 50% | 226 to 228 °C
2 | Cc1cccc(Cl)c1NC(=O)N1CCN(c2ccc(NC(=O)Nc3cc(C(F)(F)F)ccc3F)cc2)CC1 [Example 163, 4-{4-[3-(2-fluoro-5-trifluoromethyl-phenyl)-ureido]-phenyl}-piperazine-1-carboxylic acid (2-chloro-6-methyl-phenyl)-amide] | ≥ 50% | 228 to 230 °C
3 | COc1ccc(C)cc1NC(=O)Nc1ccc(N2CCN(C(=O)Cc3c(F)cccc3F)CC2)cc1 [Example 192, 1-(4-{4-[2-(2,6-difluoro-phenyl)-acetyl]-piperazin-1-yl}phenyl)-3-(2-methoxy-5-methyl-phenyl)-urea] | ≥ 50% | 213 to 215 °C
4 | COc1ccc(Cl)cc1NC(=O)Nc1ccc(N2CCN(C(=O)Nc3c(C)cccc3Cl)CC2)cc1 [Example 79, 4-{4-[3-(5-chloro-2-methoxy-phenyl)-ureido]-phenyl}-piperazine-1-carboxylic acid (2-chloro-6-methyl-phenyl)-amide] | ≥ 50% | 225 to 227 °C
5 | COc1ccc(C)cc1NC(=O)Nc1ccc(N2CCN(C(=O)Oc3c(C)cccc3Cl)CC2)cc1 [Example 197, 4-{4-[3-(2-methoxy-5-methyl-phenyl)-ureido]-phenyl}-piperazine-1-carboxylic acid 2-chloro-6-methyl-phenyl ester] | ≥ 50% | 146 to 148 °C
6 | CCc1ccccc1NC(=O)Nc1ccc(N2CCN(C(=O)Nc3c(C)cccc3Cl)CC2)cc1 [Example 128, 4-{4-[3-(2-ethyl-phenyl)-ureido]-phenyl}-piperazine-1-carboxylic acid (2-chloro-6-methyl-phenyl)-amide] | ≥ 50% | 217 to 219 °C
7 | CCOc1ccccc1NC(=O)Nc1ccc(N2CCN(C(=O)Nc3c(Cl)cccc3Cl)CC2)nc1 [Example 144, 4-{5-[3-(2-ethoxy-phenyl)-ureido]-pyridin-2-yl}-piperazine-1-carboxylic acid (2,6-dichloro-phenyl)-amide] | ≥ 50% | 170 to 172 °C
8 | CCOc1ccccc1NC(=O)Nc1ccc(N2CCN(C(=O)Nc3c(C)cccc3Cl)CC2)nc1 [Example 141, 4-{5-[3-(2-ethoxy-phenyl)-ureido]-pyridin-2-yl}-piperazine-1-carboxylic acid (2-chloro-6-methyl-phenyl)-amide] | ≥ 50% | 185 to 186 °C
9 | CCOc1cccc(NC(=O)Nc2ccc(N3CCN(C(=O)Nc4ncccc4C)CC3)cc2)c1 [Example 305, 4-{4-[3-(3-ethoxy-phenyl)-ureido]-phenyl}-piperazine-1-carboxylic acid (3-methyl-pyridin-2-yl)-amide] | ≥ 50% | 171 to 173 °C
10 | CCOc1ccc(F)cc1NC(=O)Nc1ccc(N2CCN(C(=O)Nc3ccccc3C(F)(F)F)CC2)cc1 [Example 89, 4-{4-[3-(2-ethoxy-5-fluoro-phenyl)-ureido]-phenyl}-piperazine-1-carboxylic acid (2-trifluoromethyl-phenyl)-amide] | ≥ 50% | 197 to 199 °C
11 | Cc1cnc(NC(=O)Nc2ccc(N3CCN(C(=O)Nc4ccc(OCCO)cc4C(F)(F)F)CC3)cc2)s1 [Example 213, 4-{4-[3-(5-methyl-thiazol-2-yl)-ureido]-phenyl}-piperazine-1-carboxylic acid [4-(2-hydroxy-ethoxy)-2-trifluoromethyl-phenyl]-amide] | ≥ 50% | 118 to 120 °C
12 | CCOc1ccc(F)cc1NC(=O)Nc1ccc(N2CCN(C(=O)Nc3ccc(OC)cc3C)CC2)cc1 [Example 112, 4-{4-[3-(2-ethoxy-5-fluoro-phenyl)-ureido]-phenyl}-piperazine-1-carboxylic acid (4-methoxy-2-methyl-phenyl)-amide] | ≥ 50% | 186 to 189 °C
13 | COc1cccc(NC(=O)Nc2ccc(N3CCN(C(=O)Nc4ccc(OCCO)cc4Cl)CC3)cc2)c1 [Example 249, 4-{4-[3-(3-methoxy-phenyl)-ureido]-phenyl}-piperazine-1-carboxylic acid [2-chloro-4-(2-hydroxy-ethoxy)-phenyl]-amide] | ≥ 50% | 198 to 201 °C
14 | CCOP(=O)(O)Cc1ccc(NC(=O)N2CCN(c3ccc(NC(=O)Nc4cc(C)ccc4OC)cc3)CC2)c(C)c1 [Example 391, {4-[(4-{4-[3-(2-methoxy-5-methyl-phenyl)-ureido]-phenyl}-piperazine-1-carbonyl)-amino]-3-methyl-benzyl}-phosphonic acid monoethyl ester] | ≥ 50% | 165 to 173 °C
15 | COc1ccc(F)cc1NC(=O)Nc1ccc(N2CCN(C(=O)Nc3ncccc3C)CC2)cc1 [Example 296, 4-{4-[3-(5-fluoro-2-methoxy-phenyl)-ureido]-phenyl}-piperazine-1-carboxylic acid (3-methyl-pyridin-2-yl)-amide] | ≥ 50% | 206 to 208 °C
16 | COc1ccc(NC(=O)N2CCN(c3ccc(NC(=O)Nc4cc(F)ccc4OC)cc3)CC2)c(C)c1 [Example 113, 4-{4-[3-(5-fluoro-2-methoxy-phenyl)-ureido]-phenyl}-piperazine-1-carboxylic acid (4-methoxy-2-methyl-phenyl)-amide] | ≥ 50% | 216 to 218 °C
17 | COc1ccc(C)cc1NC(=O)Nc1ccc(N2CCN(C(=O)Nc3ccc(F)cc3C(F)(F)F)CC2)nc1 [Example 155, 4-{5-[3-(2-methoxy-5-methyl-phenyl)-ureido]-pyridin-2-yl}-piperazine-1-carboxylic acid (4-fluoro-2-trifluoromethyl-phenyl)-amide] | ≥ 50% | 186 to 187 °C
18 | CCOc1ccccc1NC(=O)Nc1ccc(N2CCN(C(=O)Nc3c(C)cccc3C)CC2)cc1 [Example 116, 4-{4-[3-(2-ethoxy-phenyl)-ureido]-phenyl}-piperazine-1-carboxylic acid (2,6-dimethyl-phenyl)-amide] | ≥ 50% | 204 to 205 °C
19 | COc1ccc(C)cc1NC(=O)Nc1ccc(N2CCN(C(=O)Nc3ccccc3C(F)(F)F)CC2)nc1 [Example 137, 4-{5-[3-(2-methoxy-5-methyl-phenyl)-ureido]-pyridin-2-yl}-piperazine-1-carboxylic acid (2-trifluoromethyl-phenyl)-amide] | ≥ 50% | 213 to 214 °C
20 | COc1ccc(C)cc1NC(=O)Nc1ccc(N2CCN(C(=O)Nc3ccc(OCCO)cc3Cl)C(C)C2)cc1 (centres unmarked) [Example 252, 4-{4-[3-(2-methoxy-5-methyl-phenyl)-ureido]-phenyl}-2-methyl-piperazine-1-carboxylic acid [2-chloro-4-(2-hydroxy-ethoxy)-phenyl]-amide] | ≥ 50% | 129 to 131 °C
21 | CCOc1ccc(C)cc1NC(=O)Nc1ccc(N2CCN(C(=O)Nc3c(Cl)cccc3Cl)CC2)cc1 [Example 134, 4-{4-[3-(2-ethoxy-5-methyl-phenyl)-ureido]-phenyl}-piperazine-1-carboxylic acid (2,6-dichloro-phenyl)-amide] | ≥ 50% | 159 to 161 °C
22 | COc1ccccc1NC(=O)Nc1ccc(N2CCN(C(=O)Nc3cc(OCCO)ccc3Cl)CC2)nc1 [Example 235, 4-{5-[3-(2-methoxy-phenyl)-ureido]-pyridin-2-yl}-piperazine-1-carboxylic acid [2-chloro-5-(2-hydroxy-ethoxy)-phenyl]-amide] | ≥ 50% | 139 to 141 °C
23 | COc1cc(NC(=O)Nc2ccc(C3=CCN(C(=O)Nc4ccc(OCCO)cc4Cl)CC3)cc2)cc(OC)c1 [Example 259, 4-{4-[3-(3,5-dimethoxy-phenyl)-ureido]-phenyl}-3,6-dihydro-2H-pyridine-1-carboxylic acid [2-chloro-4-(2-hydroxy-ethoxy)-phenyl]-amide] | ≥ 50% | 135 to 139 °C
24 | COc1cc(NC(=O)Nc2ccc(C3CCN(C(=O)Nc4ccc(OCCO)cc4Cl)CC3)cc2)cc(OC)c1 [Example 262, 4-{4-[3-(3,5-dimethoxy-phenyl)-ureido]-phenyl}-piperidine-1-carboxylic acid [2-chloro-4-(2-hydroxy-ethoxy)-phenyl]-amide] | ≥ 50% | 101 to 105 °C
25 | COc1ccc(C)cc1NC(=O)Nc1ccc(N2CCN(C(=O)Nc3c(C)cccc3N)CC2)cc1 [Example 167, 4-{4-[3-(2-methoxy-5-methyl-phenyl)-ureido]-phenyl}-piperazine-1-carboxylic acid (2-amino-6-methyl-phenyl)-amide] | ≥ 50% | 198 to 199 °C
